Experimental data taken from publication PMC11167047 (Cell Death Discovery, 2024).

Key:
Test in all cases: kinome screen (33PanQinase)
Format in all cases: biochemical
ACVR2A = molecular target: T1, ACVR2A (Homo sapiens, UniProt P27037)
T1 construct: purchased Reaction Biology Europe GmbH (formerly ProQinase)
Experimental: (§1) The Kinome Screening was performed by Reaction Biology Europe GmbH (http://reactionbiology.com; Freiburg i. Br., Germany).

HIPK3 = molecular target: T2, HIPK3 (Homo sapiens, UniProt Q9H422)
T2 construct: purchased Reaction Biology Europe GmbH (formerly ProQinase)
T2 sequence (Q9H422 whole entry): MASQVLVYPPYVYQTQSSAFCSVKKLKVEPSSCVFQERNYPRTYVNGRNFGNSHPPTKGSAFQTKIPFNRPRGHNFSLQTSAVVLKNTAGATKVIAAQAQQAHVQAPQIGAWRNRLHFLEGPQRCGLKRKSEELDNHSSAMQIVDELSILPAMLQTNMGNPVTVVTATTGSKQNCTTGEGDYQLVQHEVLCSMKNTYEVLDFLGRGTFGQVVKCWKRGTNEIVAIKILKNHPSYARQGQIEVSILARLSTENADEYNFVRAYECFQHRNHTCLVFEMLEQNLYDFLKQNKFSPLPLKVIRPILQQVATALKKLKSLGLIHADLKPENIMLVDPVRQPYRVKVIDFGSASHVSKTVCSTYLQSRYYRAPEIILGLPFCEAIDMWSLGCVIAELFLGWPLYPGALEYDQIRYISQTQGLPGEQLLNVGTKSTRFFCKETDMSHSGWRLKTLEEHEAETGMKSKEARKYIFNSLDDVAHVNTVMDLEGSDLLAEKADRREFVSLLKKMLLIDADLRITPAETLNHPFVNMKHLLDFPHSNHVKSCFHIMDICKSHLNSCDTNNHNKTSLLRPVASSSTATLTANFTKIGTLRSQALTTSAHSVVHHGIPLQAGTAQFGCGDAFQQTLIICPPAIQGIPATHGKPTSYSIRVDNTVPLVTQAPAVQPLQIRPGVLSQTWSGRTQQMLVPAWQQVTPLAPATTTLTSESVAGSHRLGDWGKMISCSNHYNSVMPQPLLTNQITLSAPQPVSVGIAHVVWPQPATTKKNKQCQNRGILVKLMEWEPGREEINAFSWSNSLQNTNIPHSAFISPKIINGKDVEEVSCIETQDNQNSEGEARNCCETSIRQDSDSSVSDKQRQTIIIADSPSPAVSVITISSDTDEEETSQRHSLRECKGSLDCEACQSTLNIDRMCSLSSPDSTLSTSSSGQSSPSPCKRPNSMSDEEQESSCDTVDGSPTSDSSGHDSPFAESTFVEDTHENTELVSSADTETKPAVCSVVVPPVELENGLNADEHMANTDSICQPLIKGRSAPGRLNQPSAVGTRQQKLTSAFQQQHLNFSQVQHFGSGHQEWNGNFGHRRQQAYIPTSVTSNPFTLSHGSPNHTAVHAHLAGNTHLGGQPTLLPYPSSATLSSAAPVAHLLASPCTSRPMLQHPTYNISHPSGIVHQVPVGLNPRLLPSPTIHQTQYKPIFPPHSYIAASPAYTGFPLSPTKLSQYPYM
Experimental: as §1

FES = molecular target: T3, FES (Homo sapiens, UniProt P07332)
T3 construct: purchased Reaction Biology Europe GmbH (formerly ProQinase)
T3 sequence (P07332 whole entry): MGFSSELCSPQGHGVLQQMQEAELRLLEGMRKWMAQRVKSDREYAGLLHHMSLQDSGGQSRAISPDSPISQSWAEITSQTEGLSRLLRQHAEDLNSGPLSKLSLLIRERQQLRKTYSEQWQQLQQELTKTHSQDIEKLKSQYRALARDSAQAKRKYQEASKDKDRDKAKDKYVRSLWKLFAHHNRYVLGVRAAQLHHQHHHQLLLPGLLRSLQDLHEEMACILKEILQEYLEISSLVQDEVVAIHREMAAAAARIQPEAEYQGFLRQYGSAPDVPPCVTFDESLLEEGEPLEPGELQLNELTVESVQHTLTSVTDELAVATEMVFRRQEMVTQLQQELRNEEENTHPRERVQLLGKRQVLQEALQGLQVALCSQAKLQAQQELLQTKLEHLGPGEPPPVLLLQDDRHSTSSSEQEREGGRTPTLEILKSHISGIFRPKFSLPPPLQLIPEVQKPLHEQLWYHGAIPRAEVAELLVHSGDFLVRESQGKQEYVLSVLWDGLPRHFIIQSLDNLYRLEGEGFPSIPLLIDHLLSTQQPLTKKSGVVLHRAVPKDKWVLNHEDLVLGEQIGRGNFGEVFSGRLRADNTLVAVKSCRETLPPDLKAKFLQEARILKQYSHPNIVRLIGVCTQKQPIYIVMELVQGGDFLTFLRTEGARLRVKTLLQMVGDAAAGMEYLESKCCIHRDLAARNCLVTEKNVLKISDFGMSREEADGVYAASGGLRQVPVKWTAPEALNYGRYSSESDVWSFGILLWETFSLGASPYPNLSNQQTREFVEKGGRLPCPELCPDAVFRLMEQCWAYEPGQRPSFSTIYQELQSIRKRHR
Experimental: as §1

LYN = molecular target: T4, LYN (Homo sapiens, UniProt P07948)
T4 construct: purchased Reaction Biology Europe GmbH (formerly ProQinase)
Experimental: as §1

BLK = molecular target: T5, BLK (Homo sapiens, UniProt P51451)
T5 construct: purchased Reaction Biology Europe GmbH (formerly ProQinase)
Experimental: as §1

PRKD2 = molecular target: T6, PRKD2 (Homo sapiens, UniProt Q9BZL6)
T6 construct: purchased Reaction Biology Europe GmbH (formerly ProQinase)
T6 sequence (Q9BZL6 1-878): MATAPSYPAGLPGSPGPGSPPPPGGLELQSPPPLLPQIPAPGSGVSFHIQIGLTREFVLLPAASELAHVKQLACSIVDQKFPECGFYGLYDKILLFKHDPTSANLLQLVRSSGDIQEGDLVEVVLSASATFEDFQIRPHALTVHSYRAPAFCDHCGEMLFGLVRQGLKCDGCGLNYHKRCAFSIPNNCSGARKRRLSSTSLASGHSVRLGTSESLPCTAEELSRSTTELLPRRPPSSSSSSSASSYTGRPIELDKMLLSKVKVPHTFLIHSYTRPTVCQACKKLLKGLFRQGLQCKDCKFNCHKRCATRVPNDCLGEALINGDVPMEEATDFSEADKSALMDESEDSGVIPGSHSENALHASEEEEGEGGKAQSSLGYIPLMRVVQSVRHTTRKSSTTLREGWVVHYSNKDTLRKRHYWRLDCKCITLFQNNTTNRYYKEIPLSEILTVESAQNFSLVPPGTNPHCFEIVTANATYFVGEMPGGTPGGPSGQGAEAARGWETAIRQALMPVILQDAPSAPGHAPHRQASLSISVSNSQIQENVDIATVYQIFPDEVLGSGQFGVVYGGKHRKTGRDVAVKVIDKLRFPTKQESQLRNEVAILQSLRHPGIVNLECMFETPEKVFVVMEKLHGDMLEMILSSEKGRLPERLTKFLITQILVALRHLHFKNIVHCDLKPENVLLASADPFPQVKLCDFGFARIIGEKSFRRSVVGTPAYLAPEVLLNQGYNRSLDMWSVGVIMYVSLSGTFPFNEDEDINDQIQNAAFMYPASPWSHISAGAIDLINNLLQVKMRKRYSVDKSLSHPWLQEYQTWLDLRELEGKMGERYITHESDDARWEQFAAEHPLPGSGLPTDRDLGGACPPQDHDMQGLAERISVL
Experimental: as §1

ASK1 = molecular target: T7, ASK1 (Homo sapiens, UniProt Q99683)
T7 construct: purchased Reaction Biology Europe GmbH (formerly ProQinase)
T7 sequence (Q99683 1-1374): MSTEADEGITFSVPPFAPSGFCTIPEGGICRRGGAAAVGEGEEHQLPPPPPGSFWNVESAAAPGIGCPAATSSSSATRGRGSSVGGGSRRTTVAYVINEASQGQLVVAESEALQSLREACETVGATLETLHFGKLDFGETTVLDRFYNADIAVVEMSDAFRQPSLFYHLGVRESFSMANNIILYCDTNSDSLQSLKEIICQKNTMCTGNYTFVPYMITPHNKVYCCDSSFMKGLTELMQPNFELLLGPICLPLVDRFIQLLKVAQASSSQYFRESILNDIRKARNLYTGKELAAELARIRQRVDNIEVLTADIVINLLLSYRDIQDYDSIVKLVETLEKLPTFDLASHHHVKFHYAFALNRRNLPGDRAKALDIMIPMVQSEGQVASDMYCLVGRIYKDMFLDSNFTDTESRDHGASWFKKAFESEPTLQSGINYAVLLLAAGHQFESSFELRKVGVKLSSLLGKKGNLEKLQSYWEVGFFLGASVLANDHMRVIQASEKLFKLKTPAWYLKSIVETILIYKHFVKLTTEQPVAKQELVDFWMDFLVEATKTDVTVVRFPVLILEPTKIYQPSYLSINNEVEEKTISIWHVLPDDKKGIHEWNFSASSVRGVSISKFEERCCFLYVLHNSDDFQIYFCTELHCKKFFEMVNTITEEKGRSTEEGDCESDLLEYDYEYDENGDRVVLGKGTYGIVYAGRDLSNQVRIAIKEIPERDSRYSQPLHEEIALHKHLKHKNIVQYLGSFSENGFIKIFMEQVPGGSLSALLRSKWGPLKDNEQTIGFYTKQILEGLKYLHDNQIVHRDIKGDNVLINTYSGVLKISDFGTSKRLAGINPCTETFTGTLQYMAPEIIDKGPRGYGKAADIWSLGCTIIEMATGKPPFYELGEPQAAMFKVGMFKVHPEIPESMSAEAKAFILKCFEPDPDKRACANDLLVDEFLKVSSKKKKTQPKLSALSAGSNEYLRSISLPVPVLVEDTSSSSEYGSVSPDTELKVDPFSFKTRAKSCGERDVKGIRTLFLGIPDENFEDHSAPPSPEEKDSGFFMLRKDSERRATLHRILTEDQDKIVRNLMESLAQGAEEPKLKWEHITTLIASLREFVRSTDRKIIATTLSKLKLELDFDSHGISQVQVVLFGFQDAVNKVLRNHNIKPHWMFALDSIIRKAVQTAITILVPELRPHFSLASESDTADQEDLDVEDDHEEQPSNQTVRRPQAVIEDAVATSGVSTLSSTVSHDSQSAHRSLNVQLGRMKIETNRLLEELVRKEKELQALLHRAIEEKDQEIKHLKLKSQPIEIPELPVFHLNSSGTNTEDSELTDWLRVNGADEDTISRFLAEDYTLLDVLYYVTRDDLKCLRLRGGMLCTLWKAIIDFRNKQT
Experimental: as §1

AMPKα1 = molecular target: T8, AMPKα1 (Homo sapiens, UniProt Q13131)
T8 construct: purchased Reaction Biology Europe GmbH (formerly ProQinase)
Experimental: as §1

ABL2 = molecular target: T9, ABL2 (Homo sapiens, UniProt P42684)
T9 construct: purchased Reaction Biology Europe GmbH (formerly ProQinase)
Experimental: as §1

LTK = molecular target: T10, LTK (Homo sapiens, UniProt P29376)
T10 construct: purchased Reaction Biology Europe GmbH (formerly ProQinase)
T10 sequence (P29376 17-864): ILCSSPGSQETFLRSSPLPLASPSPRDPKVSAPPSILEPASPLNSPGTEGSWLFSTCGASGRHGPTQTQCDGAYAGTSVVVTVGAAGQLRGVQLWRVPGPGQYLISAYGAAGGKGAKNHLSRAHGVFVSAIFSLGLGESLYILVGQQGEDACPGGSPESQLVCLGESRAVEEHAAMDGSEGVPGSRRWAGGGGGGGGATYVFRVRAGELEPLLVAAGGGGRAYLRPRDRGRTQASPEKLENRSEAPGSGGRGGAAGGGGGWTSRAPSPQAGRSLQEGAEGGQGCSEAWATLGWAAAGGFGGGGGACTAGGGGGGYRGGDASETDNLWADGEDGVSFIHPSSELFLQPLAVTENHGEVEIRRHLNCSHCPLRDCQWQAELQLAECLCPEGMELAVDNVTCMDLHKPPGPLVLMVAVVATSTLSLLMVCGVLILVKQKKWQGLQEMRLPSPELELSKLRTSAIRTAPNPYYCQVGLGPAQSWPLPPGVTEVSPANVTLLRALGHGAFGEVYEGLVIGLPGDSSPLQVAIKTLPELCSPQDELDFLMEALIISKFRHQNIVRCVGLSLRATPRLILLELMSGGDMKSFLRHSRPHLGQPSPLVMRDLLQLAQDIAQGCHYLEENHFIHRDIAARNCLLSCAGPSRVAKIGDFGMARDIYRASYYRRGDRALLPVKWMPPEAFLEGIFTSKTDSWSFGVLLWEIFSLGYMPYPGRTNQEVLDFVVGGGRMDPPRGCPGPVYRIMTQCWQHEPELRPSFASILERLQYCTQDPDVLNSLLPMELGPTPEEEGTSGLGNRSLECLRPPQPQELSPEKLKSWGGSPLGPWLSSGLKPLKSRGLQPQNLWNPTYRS
Experimental: as §1

MET = molecular target: T11, MET (Homo sapiens, UniProt P08581)
T11 construct: purchased Reaction Biology Europe GmbH (formerly ProQinase)
T11 sequence (P08581 25-1390): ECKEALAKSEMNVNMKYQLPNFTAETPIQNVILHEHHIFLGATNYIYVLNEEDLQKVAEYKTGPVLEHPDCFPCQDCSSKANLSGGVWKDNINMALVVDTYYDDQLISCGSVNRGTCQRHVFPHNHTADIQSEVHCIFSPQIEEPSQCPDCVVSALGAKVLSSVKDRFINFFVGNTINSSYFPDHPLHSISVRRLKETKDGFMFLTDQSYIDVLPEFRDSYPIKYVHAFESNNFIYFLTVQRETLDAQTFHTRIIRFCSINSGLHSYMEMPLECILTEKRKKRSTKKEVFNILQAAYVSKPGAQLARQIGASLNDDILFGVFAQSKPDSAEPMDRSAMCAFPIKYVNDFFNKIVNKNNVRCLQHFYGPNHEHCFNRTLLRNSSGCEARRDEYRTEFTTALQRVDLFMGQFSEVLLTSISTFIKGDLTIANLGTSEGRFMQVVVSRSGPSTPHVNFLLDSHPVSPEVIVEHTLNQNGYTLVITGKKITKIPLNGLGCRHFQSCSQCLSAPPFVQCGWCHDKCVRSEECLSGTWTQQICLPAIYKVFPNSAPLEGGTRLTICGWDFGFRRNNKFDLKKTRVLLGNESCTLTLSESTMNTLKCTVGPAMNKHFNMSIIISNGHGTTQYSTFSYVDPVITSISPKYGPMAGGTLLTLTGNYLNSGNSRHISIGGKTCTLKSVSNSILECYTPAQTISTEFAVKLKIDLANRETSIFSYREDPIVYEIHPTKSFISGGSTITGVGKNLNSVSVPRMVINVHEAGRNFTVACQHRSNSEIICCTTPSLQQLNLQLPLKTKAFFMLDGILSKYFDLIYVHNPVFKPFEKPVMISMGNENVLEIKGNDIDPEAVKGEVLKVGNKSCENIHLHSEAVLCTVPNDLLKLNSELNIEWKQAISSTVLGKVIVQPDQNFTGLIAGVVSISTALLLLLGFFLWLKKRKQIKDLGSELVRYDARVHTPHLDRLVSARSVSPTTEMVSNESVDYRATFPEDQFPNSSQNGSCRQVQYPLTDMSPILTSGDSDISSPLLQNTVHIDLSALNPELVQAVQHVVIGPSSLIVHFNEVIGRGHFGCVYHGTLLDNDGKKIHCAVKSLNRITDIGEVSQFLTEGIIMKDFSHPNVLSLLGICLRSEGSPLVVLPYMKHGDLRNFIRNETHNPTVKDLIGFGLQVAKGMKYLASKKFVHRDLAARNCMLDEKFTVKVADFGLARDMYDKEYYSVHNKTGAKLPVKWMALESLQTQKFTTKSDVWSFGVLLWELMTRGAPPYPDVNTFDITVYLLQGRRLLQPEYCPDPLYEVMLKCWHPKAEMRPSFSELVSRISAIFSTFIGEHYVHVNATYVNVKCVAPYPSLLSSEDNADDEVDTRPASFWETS
Experimental: as §1

T1 sequence (P27037 20-513): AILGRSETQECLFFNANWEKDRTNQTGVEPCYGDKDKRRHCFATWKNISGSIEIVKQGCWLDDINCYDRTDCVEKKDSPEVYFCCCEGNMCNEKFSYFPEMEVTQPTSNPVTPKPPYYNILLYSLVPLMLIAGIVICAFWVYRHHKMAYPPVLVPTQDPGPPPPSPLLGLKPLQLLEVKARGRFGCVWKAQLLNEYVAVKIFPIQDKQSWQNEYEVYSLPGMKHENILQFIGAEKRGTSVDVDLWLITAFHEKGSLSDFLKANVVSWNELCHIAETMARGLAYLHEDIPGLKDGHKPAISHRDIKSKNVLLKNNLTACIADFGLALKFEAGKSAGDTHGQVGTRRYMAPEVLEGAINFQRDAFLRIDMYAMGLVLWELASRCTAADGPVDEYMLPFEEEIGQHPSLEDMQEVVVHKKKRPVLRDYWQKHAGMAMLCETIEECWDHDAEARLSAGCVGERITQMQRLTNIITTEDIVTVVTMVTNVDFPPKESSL

Compound	residual kinase activity (ACVR2A; 0.3 µM)	residual kinase activity (HIPK3; 0.3 µM)	residual kinase activity (FES; 0.3 µM)	residual kinase activity (LYN; 0.3 µM)	residual kinase activity (BLK; 0.3 µM)	residual kinase activity (PRKD2; 0.3 µM)	residual kinase activity (ASK1; 0.3 µM)	residual kinase activity (AMPKα1; 0.3 µM)	residual kinase activity (ABL2; 0.3 µM)	residual kinase activity (LTK; 0.3 µM)	residual kinase activity (MET; 0.3 µM)	other results
COc1ccnc2[nH]cc(-c3cc(N)nc(N)c3)c12 [meriolin 16]	103 % of control	7 % of control	87 % of control	81 % of control	95 % of control	37 % of control	85 % of control	78 % of control	91 % of control	98 % of control	106 % of control	residual kinase activity (ACVR2A; 0.03 µM): 103 % of control; residual kinase activity (HIPK3; 0.03 µM): 53 % of control; residual kinase activity (FES; 0.03 µM): 93 % of control; residual kinase activity (LYN; 0.03 µM): 105 % of control; residual kinase activity (BLK; 0.03 µM): 126 % of control; residual kinase activity (PRKD2; 0.03 µM): 87 % of control; residual kinase activity (ASK1; 0.03 µM): 97 % of control; residual kinase activity (AMPKα1; 0.03 µM): 108 % of control; residual kinase activity (ABL2; 0.03 µM): 95 % of control; residual kinase activity (LTK; 0.03 µM): 110 % of control; residual kinase activity (MET; 0.03 µM): 110 % of control
c1ccc(CNc2cc(-c3c[nH]c4ncccc34)ccn2)cc1 [meriolin 36]	94 % of control	45 % of control	83 % of control	73 % of control	88 % of control	68 % of control	50 % of control	57 % of control	56 % of control	46 % of control	99 % of control	residual kinase activity (ACVR2A; 3 µM): 47 % of control; residual kinase activity (HIPK3; 3 µM): 11 % of control; residual kinase activity (FES; 3 µM): 50 % of control; residual kinase activity (LYN; 3 µM): 25 % of control; residual kinase activity (BLK; 3 µM): 13 % of control; residual kinase activity (PRKD2; 3 µM): 25 % of control; residual kinase activity (ASK1; 3 µM): 15 % of control; residual kinase activity (AMPKα1; 3 µM): 9 % of control; residual kinase activity (ABL2; 3 µM): 18 % of control; residual kinase activity (LTK; 3 µM): 11 % of control; residual kinase activity (MET; 3 µM): 48 % of control
